Assay [1] concerns T-cell. Briefly: CD25 cell surface staining on T-cells co-stimulated with anti-CD3 and anti-CD28 antibody (Biological Example 2). The class given is cell-based, human. Conditions: Homo sapiens, T-cell, primary human total T-cells, baseline = anti-CD3/anti-CD28 stimulated cells without inhibitor, read-out: CD25 staining, Anti-CD3/Anti-CD28 stimulation, fold change over baseline; for fold induction at 0.3 µM: 0.3 μM compound; for fold induction at 1 µM: 1 μM compound; for fold induction at 4 µM: 4 μM compound. The essentials: (§1)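 No assay protocol given; T-cells stimulated with anti-CD3 alone or anti-CD3 plus anti-CD28, with or without Cbl-b inhibitor. Activation read as IL-2 secretion or CD25 surface staining, expressed as fold over baseline from uninhibited cells […].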

The test system of assay [2] is T-cell. Briefly: CD25 cell surface staining on T-cells stimulated with anti-CD3 antibody alone (Biological Example 2). The class given is cell-based. As to conditions: primary human total T-cells, baseline = anti-CD3/anti-CD28 stimulated cells without inhibitor, read-out: CD25 staining, Anti-CD3 stimulation, fold change over baseline; for fold induction at 1 µM: 1 μM compound; for fold induction at 8 µM: 8 μM compound.

Assay [3] has as its target T1, Cbl-b (Homo sapiens, UniProt Q13191). Briefly: Cbl-b activity assay (Cbl-b inhibition assay), TR-FRET of Cbl-b interaction with UbcH5B-Ub. The format is biochemical. As to conditions: assay buffer with 100 mM NaCl, 60 nM Src kinase; read-out: Cbl-b activity IC50. The essentials:
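TR-FRET readout of Cbl-b binding to Bodipy-fluorescein N-terminally labeled Ub conjugated to UbcH5B C85K, measured with compound present. After compound incubation, 60 nM Src kinase with 1 mM ATP and 5 mM MgCl2 (final) was added for 1.5 h, then a further 1 h incubation; asterisked values used 50 mM NaCl buffer and 30 nM Src.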
(In TR-FRET formats the signal depends on donor and acceptor labels being close together.)

Assay [4] deals with T1, Cbl-b. Briefly: Cbl-b inhibition assay (Cbl-b activity assay, FRET, Biological Example 1; 100 mM NaCl, 60 nM Src kinase). The format is biochemical. As to conditions: upper bound stated in text lists; read-out: IC50 values in the Cbl-b inhibition assay of Biological Example 1. The essentials:
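Steps: Src kinase phosphorylates N-terminal biotinylated Avi-tagged Cbl-b; phosphorylated Cbl-b binds Bodipy-fluorescein ubiquitin-loaded UbcH5B; streptavidin-terbium on Cbl-b sits close to the fluorescein label, producing FRET. Inhibitors block UbcH5B-Ub binding.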

In assay [5] the test system is T-cell. Briefly: IL-2 secretion from T-cells co-stimulated with anti-CD3 and anti-CD28 antibody (Biological Example 2). The format is cell-based, human. Conditions: Homo sapiens, T-cell, primary human total T-cells, baseline = anti-CD3/anti-CD28 stimulated cells without inhibitor, read-out: IL-2 secretion, Anti-CD3/Anti-CD28 stimulation, fold change over baseline; for fold induction at 0.3 µM: 0.3 μM compound; for fold induction at 1 µM: 1 μM compound; for fold induction at 4 µM: 4 μM compound. The essentials: as §1

Another assay concerns the target Cbl-b (residues 36-427) (Homo sapiens, UniProt Q13191). As to the kind of experiment: Cbl-b binding assay (SPR, Biacore T200). As to conditions: 20° C., 1:1 binding model. The essentials:
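Affinities derived from global 1:1 steady-state or kinetic fits of double-referenced, solvent-corrected SPR data, 20 °C, NeutrAvidin-capture chip. Compound series (top 100 or 50 μM, 8–10 points) injected 50 s, 90–180 s dissociation. Asterisked values used 50 mM instead of 100 mM NaCl and 30 nM Src kinase.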
(In general: In SPR one partner is held on a chip, and binding of the other changes the refractive index at the surface.)

Assay [6] has as its system T-cell. Briefly: IL-2 secretion from T-cells stimulated with anti-CD3 antibody alone (Biological Example 2). The class given is cell-based. As to conditions: primary human total T-cells, read-out: IL-2 secretion, Anti-CD3 stimulation, fold change over baseline; for fold induction at 1 µM: 1 μM compound; for fold induction at 8 µM: 8 μM compound.

pIC50, pKd: −log10 of the molar value.

T1 sequence (Q13191 36-427): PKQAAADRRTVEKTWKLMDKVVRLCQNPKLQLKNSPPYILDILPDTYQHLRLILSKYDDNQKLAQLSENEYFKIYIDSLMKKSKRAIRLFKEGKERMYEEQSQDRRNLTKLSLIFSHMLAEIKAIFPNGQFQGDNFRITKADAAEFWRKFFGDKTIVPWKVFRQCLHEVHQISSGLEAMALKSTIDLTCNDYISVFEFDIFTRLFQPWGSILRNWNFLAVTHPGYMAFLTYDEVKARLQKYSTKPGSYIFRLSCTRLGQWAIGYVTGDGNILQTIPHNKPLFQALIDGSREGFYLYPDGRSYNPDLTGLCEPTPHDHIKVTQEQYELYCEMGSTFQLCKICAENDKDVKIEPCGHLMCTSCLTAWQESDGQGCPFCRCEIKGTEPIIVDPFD
Cbl-b (residues 36-427), sequence (Q13191 36-427): as above

For the compound `Cn1cnnc1CC1(c2cccc(N3Cc4c(cc(CN5CCC(F)(F)C5)cc4C(F)(F)F)C3=O)c2)COC1` [Compound 411, 6-((3,3-difluoropyrrolidin-1-yl)methyl)-2-(3-(3-((4-methyl-4H-1,2,4-triazol-3-yl)methyl)oxetan-3-yl)phenyl)-4-(trifluoromethyl)isoindolin-1-one], the fold induction at 0.3 µM in the assay with T-cell [1] fell in the range of 1.01 to 1.3; in the assay with T-cell [5], 2.51 to 5. Further, the fold induction at 1 µM was 1.01 to 1.3 in the assay with T-cell [1], over 1 in the assay with T-cell [2], over 7.5 with T-cell [5] and over 0.201 in the assay on T-cell [6]. For the same compound, the fold induction at 4 µM is 1.01 to 1.3 with T-cell [1] and over 7.5 with T-cell [5]. Moreover, the fold induction at 8 µM is over 1 in the assay on T-cell [2] and over 0.201 in the assay on T-cell [6]. In addition, the pIC50 was over 7.00 at Cbl-b [3] and at least 7.00 on Cbl-b [4]. This compound also had a negative logarithm of the Kd (pKd) at Cbl-b (residues 36-427) of over 7.00.
As to `CC(c1cc2c(c(C(F)(F)F)c1)CN(c1cccc([C@H](C)Cc3nncn3C)c1)C2=O)N1CC[C@H](O)C1` (stereo partly drawn) [Compound 416, 6-(1-((S)-3-hydroxypyrrolidin-1-yl)ethyl)-2-(3-((R)-1-(4-methyl-4H-1,2,4-triazol-3-yl)propan-2-yl)phenyl)-4-(trifluoromethyl)isoindolin-1-one], the fold induction at 0.3 µM was 1.31 to 1.5 with T-cell [1] and 2.51 to 5 in the assay with T-cell [5]. Also, the fold induction at 1 µM in the assay with T-cell [1] was 1.31 to 1.5; with T-cell [2], over 1; in the assay on T-cell [5], over 7.5; in the assay with T-cell [6] it was 0.151 to 0.2. Further, the fold induction at 4 µM in the assay with T-cell [1] was 1.51 to 1.75; in the assay on T-cell [5] it was over 7.5. Further, the fold induction at 8 µM is over 1 with T-cell [2] and over 0.201 in the assay on T-cell [6]. Besides, the pIC50 is over 7.00 at Cbl-b [3] and at least 7.00 at Cbl-b [4]. Moreover, the negative logarithm of the Kd (pKd) at Cbl-b (residues 36-427) was over 7.00.
Consider `C[C@H](Cc1nncn1C)c1cccc(N2Cc3c(cc(CN4CC(O)C(F)(F)C4)cc3C(F)(F)F)C2=O)c1` (stereo partly drawn) [Compound 417, 6-((3,3-difluoro-4-hydroxypyrrolidin-1-yl)methyl)-2-(3-((R)-1-(4-methyl-4H-1,2,4-triazol-3-yl)propan-2-yl)phenyl)-4-(trifluoromethyl)isoindolin-1-one], for which the fold induction at 0.3 µM in the assay on T-cell [1] lay within 1.01 to 1.3; in the assay with T-cell [5], 2.51 to 5. The fold induction at 1 µM in the assay on T-cell [1] is 1.31 to 1.5; with T-cell [2], over 1; in the assay with T-cell [5], 5 to 7.5; with T-cell [6] it was 0.101 to 0.15. Further, the fold induction at 4 µM with T-cell [1] is 1.31 to 1.5; in the assay on T-cell [5], over 7.5. Further, the fold induction at 8 µM in the assay with T-cell [2] is over 1; in the assay with T-cell [6] it was over 0.201. The negative-log IC50 (pIC50) on Cbl-b [3] is over 7.00; on Cbl-b [4], at least 7.00. At Cbl-b (residues 36-427), this compound showed a negative logarithm of the Kd (pKd) of over 7.00.
On to `C[C@H](Cc1nncn1C)c1cccc(N2Cc3c(cc(CN4C[C@@H](F)[C@@H](O)C4)cc3C(F)(F)F)C2=O)c1` [Compound 418], for which the fold induction at 0.3 µM in the assay on T-cell [1] lay within 1.01 to 1.3; in the assay on T-cell [5] it was 2.51 to 5. In addition, the fold induction at 1 µM was 1.31 to 1.5 in the assay with T-cell [1], over 1 in the assay on T-cell [2], 5 to 7.5 with T-cell [5] and 0.151 to 0.2 in the assay with T-cell [6]. Besides, the values for the fold induction at 4 µM with T-cell [1] and with T-cell [5] were 1.31 to 1.5 and over 7.5, respectively. Besides, the fold induction at 8 µM with T-cell [2] was over 1; in the assay with T-cell [6] it was over 0.201. The pIC50 on Cbl-b [3] is over 7.00; at Cbl-b [4], at least 7.00. The compound further gave a pKd on Cbl-b (residues 36-427) of over 7.00.
In the case of `CC(O)c1cc2c(c(C(F)(F)F)c1)CN(c1cccc([C@H](C)Cc3nncn3C)c1)C2=O` (stereo partly drawn) [Compound 436, 6-(1-hydroxyethyl)-2-(3-((R)-1-(4-methyl-4H-1,2,4-triazol-3-yl)propan-2-yl)phenyl)-4-(trifluoromethyl)isoindolin-1-one], the fold induction at 0.3 µM in the assay on T-cell [1] fell in the range of 1.01 to 1.3; in the assay with T-cell [5], 2.51 to 5. Also, the fold induction at 1 µM in the assay with T-cell [1] fell in the range of 1.31 to 1.5; in the assay with T-cell [2], 0.801 to 1; with T-cell [5], 5 to 7.5; in the assay with T-cell [6], 0.151 to 0.2. Moreover, the fold induction at 4 µM in the assay on T-cell [1] was 1.31 to 1.5; with T-cell [5], over 7.5. Moreover, the figures for the fold induction at 8 µM in the assay with T-cell [2] and in the assay on T-cell [6] were over 1 and over 0.201, respectively. In addition, the pIC50 at Cbl-b [3] is over 7.00; at Cbl-b [4] it was at least 7.00. Besides, the pKd at Cbl-b (residues 36-427) was over 7.00.
With `CC(O)c1cc2c(c(C(F)(F)F)c1)CN(c1cccc([C@@](C)(F)C(F)(F)c3nncn3C)c1)C2=O` (stereo partly drawn) [Compound 446, 6-(1-hydroxyethyl)-2-(3-((R)-1,1,2-trifluoro-1-(4-methyl-4H-1,2,4-triazol-3-yl)propan-2-yl)phenyl)-4-(trifluoromethyl)isoindolin-1-one], the fold induction at 0.3 µM in the assay with T-cell [1] fell in the range of 1.01 to 1.3; in the assay on T-cell [5], 1.01 to 2.5. In addition, the fold induction at 1 µM is 1.01 to 1.3 in the assay on T-cell [1], 0.801 to 1 in the assay with T-cell [2], 1.01 to 2.5 in the assay with T-cell [5] and 0.051 to 0.1 in the assay on T-cell [6]. The fold induction at 4 µM lay in the range of 1.01 to 1.3 in the assay on T-cell [1] and 5 to 7.5 in the assay on T-cell [5]. The fold induction at 8 µM with T-cell [2] was over 1; with T-cell [6], over 0.201. Further, the pIC50 was over 7.00 at Cbl-b [3] and at least 7.00 on Cbl-b [4]. On Cbl-b (residues 36-427), this compound gave a negative-log Kd (pKd) of 6.52 to 7.00.
`Cn1cnnc1C(F)(F)[C@](C)(F)c1cccc(N2Cc3c(cc(CN4CC(F)C4)cc3C(F)(F)F)C2=O)c1` [Compound 451, (R)-6-((3-fluoroazetidin-1-yl)methyl)-2-(3-(1,1,2-trifluoro-1-(4-methyl-4H-1,2,4-triazol-3-yl)propan-2-yl)phenyl)-4-(trifluoromethyl)isoindolin-1-one]: the fold induction at 0.3 µM with T-cell [1] lay within 1.01 to 1.3; in the assay with T-cell [5], 1.01 to 2.5. For the same compound, the fold induction at 1 µM in the assay with T-cell [1] lay in the range of 1.01 to 1.3; in the assay on T-cell [2], 0.801 to 1; with T-cell [5], 5 to 7.5; in the assay on T-cell [6] it was 0.101 to 0.15. Further, the fold induction at 4 µM was 1.31 to 1.5 in the assay on T-cell [1] and over 7.5 with T-cell [5]. Besides, the fold induction at 8 µM in the assay on T-cell [2] is over 1; in the assay with T-cell [6] it was over 0.201. Also, the figures for the pIC50 on Cbl-b [3] and at Cbl-b [4] were 6.52 to 7.00 and at least 6.52, respectively. The compound further showed a pKd at Cbl-b (residues 36-427) of over 7.00.
With `Cn1cnnc1C(F)(F)[C@](C)(F)c1cccc(N2Cc3c(cc(CN4CC[C@H](S(C)(=O)=O)C4)cc3C(F)(F)F)C2=O)c1` [Compound 457, 6-(((S)-3-(Methylsulfonyl)pyrrolidin-1-yl)methyl)-2-(3-((R)-1,1,2-trifluoro-1-(4-methyl-4H-1,2,4-triazol-3-yl)propan-2-yl)phenyl)-4-(trifluoromethyl)isoindolin-1-one], the fold induction at 0.3 µM was 1.01 to 1.3 in the assay with T-cell [1] and 2.51 to 5 with T-cell [5]. Also, the fold induction at 1 µM in the assay with T-cell [1] fell in the range of 1.01 to 1.3; in the assay with T-cell [2] it was 0.801 to 1; with T-cell [5], 2.51 to 5; in the assay with T-cell [6], 0.101 to 0.15. Besides, the fold induction at 4 µM was 1.01 to 1.3 in the assay on T-cell [1] and over 7.5 in the assay on T-cell [5]. The fold induction at 8 µM in the assay with T-cell [2] is over 1; in the assay with T-cell [6], over 0.201. Also, the figures for the pIC50 on Cbl-b [3] and on Cbl-b [4] were over 7.00 and at least 7.00, respectively. Moreover, the pKd on Cbl-b (residues 36-427) is over 7.00.

One may read the pIC50 as −log10 of the IC50, conventionally taken in molar units. One may read the pKd as −log10 of the Kd, conventionally taken in molar units. Lower therefore signals a large Kd.

The values are drawn from patent US20220324835A1 (Nurix Therapeutics, Inc., priority 2018, published 2022).
